According to patent US20120184590A1, “FORMULATIONS OF INDOLE-3-CARBINOL DERIVED ANTITUMOR AGENTS WITH INCREASED ORAL BIOAVAILABILITY” (UNIVERSITY OF KANSAS, priority 2009, published 2012):
Several values for one entry are separate records, joined by “and”; a condition that tells them apart may be missing. Equal entries are not always repeated. Where two headings read alike, the source gives them in different places. Marks after values point to notes of the source that are not given here.

Experiments:
[1] = Pharmacokinetics of SR13668 in dogs after i.v. and oral gavage dosing; assay type: in vivo, beagle dogs; conditions: for Fabs F/(1-ER): blood; for bioavailability: beagle (dogs), across all oral groups, dogs and monkeys; for Vd/F: read-out: VZ/F
Excerpt: Four non-naïve male beagle dogs (approximately 3 years of age; Ridglan Farms Inc. Mt. Horeb, Wis.) and four non-naïve male cynomolgus monkeys [cynos (macaca fasicularis); approximately 7 to 8 years of age; Charles River Laboratories, Inc., Houston, Tex.] were used in this study. Prior to experimental initiation for the present study, the attending veterinarian certified that the animals were healthy and free from disease and parasites.
For both species, each animal was part of each experimental group, with a 7-day interval between treatments to allow for washout of the dosing formulation and its effects. Dosing formulations of SR13668 were administered by oral gavage (intragastric) or intravenous (i.v.) injection as a single dose or once daily for seven consecutive days. Oral to doses were administered at a dosing volume of 5 mL/kg of body weight, while intravenous doses were administered at a dosing volume of 0.5 mL/kg of body weight. Dogs were dosed with 93.6 mg/m^2 SR13668 intravenously in DMSO:PEG300 15:85 (v/v) or orally in Solutol® vehicle (two groups, fed and after an overnight fast). Monkeys were dosed with 84.2 mg/m^2 SR13668 intravenously in DMSO:PEG300 15:85 (v/v) or orally (336.7 mg/m^2 SR13668 for the oral high dose group) in PEG400:Labrasol® 1:1 (v/v) or Solutol® vehicles. Vehicle control groups were used to assess the tolerability of the vehicle and for clinical pathology evaluations.
Blood samples were collected from each animal at 10 time points (0, 0.25, 0.5, 1, 2, 4, 6, 8, 12 and 24 hours post-dose) during the first and last 24-hour segment of each dosing regimen. For single intravenous dose experiments, samples were collected during the 24-hour post-dose period only. Samples were transferred to Vacutainer tubes containing ethylenediaminetetraacetic acid (EDTA; Fisher Scientific, Pittsburgh, Pa.). The tubes were inverted several times to mix and then placed on ice until storage or centrifugation for plasma preparation. After centrifugation, the plasma was transferred into storage tubes (0.5 mL), which were placed on dry ice and then stored frozen (approximately −70° C.).
Levels of SR13668 in plasma and blood were measured using a tandem mass to spectrometer (API 3000; Applied Biosystems/MDS Sciex, Foster City, Calif.) equipped with a high performance liquid chromatograph (Agilent 1200; Agilent Technologies, Wilmington, Del.). For SR13668 determination, a 100 μL blood or plasma aliquot was mixed with 1 mL of acetonitrile (ACN; Sigma-Aldrich, St. Louis, Mo.). After vortex-mixing for one minute, the sample was centrifuged at 4° C. and 7000 RPM for 10 minutes to remove precipitated proteins, and the supernatant was transferred to a clean tube and dried under nitrogen flow at room temperature (approximately 25° C.). After the evaporation was completed, the residue was reconstituted in 500 μL of ACN/water (v/v 70:30), and vortex-mixed and centrifuged again. An aliquot of the resulting supernatant was transferred to an autosampler tube for instrumental analysis.
A freshly prepared SR13668 standard curve was analyzed along with samples on each day of analysis. The chromatographic column was a Luna 3μ C18(2) 110 Å 30×2.0 mm (Phenomenex, Torrance, Calif.). The column temperature was maintained at 25° C., and a flow rate of 0.30 mL/min was used. The mobile phase consisted of MPA: formic acid in water (0.05%, v/v) and MPB: formic acid in ACN (0.05%, v/v). The mobile phase gradient was as follows: after injection, initial conditions with MPA at 40% were held for 0.01 min, decreased to 5% and held constant for 3 min, returning to initial conditions for another 3 min of re-equilibration time. Retention time of SR13668 was approximately 2.4 min. Total run time was 6 min. A turbo ion spray interface was used as the ion source operating in negative ion mode. Acquisition was performed in multiple reaction monitoring mode using ions 429.15 (Q1) and 414.12 (Q3) Dalton. […]

[2] = Green C., unpublished results; cited from earlier work
[3] = dogs, whole blood, 93.6 mg/m^2 (4.68 mg/kg) iv single dose, DMSO:PEG300 15:85 v/v, fed
[4] = male, beagle, dog, plasma, iv, 4.68 mg/kg, dogs, plasma, 93.6 mg/m^2 (4.68 mg/kg) i.v. single dose, DMSO:PEG300 15:85 v/v, fed
[5] = male, beagle, dog, plasma, po, 4.68 mg/kg, dogs, 93.6 mg/m^2 (4.68 mg/kg) oral gavage, Solutol, seventh daily dose, fasted
[6] = male, beagle, dog, plasma, po, 4.68 mg/kg, dogs, 93.6 mg/m^2 (4.68 mg/kg) oral gavage, Solutol, seventh daily dose, fed
[7] = male, beagle, dog, whole blood, iv, 4.68 mg/kg, dogs, whole blood, 93.6 mg/m^2 (4.68 mg/kg) iv single dose, DMSO:PEG300 15:85 v/v, fed
[8] = male, beagle, dog, whole blood, po, 4.68 mg/kg, dogs, 93.6 mg/m^2 (4.68 mg/kg) oral gavage, Solutol, seventh daily dose, fasted
[9] = male, beagle, dog, whole blood, po, 4.68 mg/kg, dogs, 93.6 mg/m^2 (4.68 mg/kg) oral gavage, Solutol, seventh daily dose, fed

With `CCOC(=O)c1ccc2[nH]c3c(OC)c4[nH]c5ccc(C(=O)OCC)cc5c4cc3c2c1` [SR13668, 2,10-dicarbethoxy-6-methoxy-5,7-dihydro-indolo-(2,3-b)carbazole] the CL ([1]; dogs, blood clearance, 93.6 mg/m^2 (4.68 mg/kg) oral gavage, Solutol, fasted) was 1.8 L/h/kg, the CL ([1]; dogs, blood clearance, 93.6 mg/m^2 (4.68 mg/kg) oral gavage, Solutol, fed) was 1.54 L/h/kg and the “Fabs F/(1-ER)” value ([1]; dogs, 93.6 mg/m^2 (4.68 mg/kg) oral gavage, Solutol, fasted) was 16.5%. The “Fabs F/(1-ER)” value ([1]; dogs, 93.6 mg/m^2 (4.68 mg/kg) oral gavage, Solutol, fed) was 20.0%, the “F0-∞” value ([1]; dogs, plasma, 93.6 mg/m^2 (4.68 mg/kg) i.v. single dose, DMSO:PEG300 15:85 v/v, fed) was 100% and the “F0-∞” value ([1]; dogs, plasma, 93.6 mg/m^2 (4.68 mg/kg) oral gavage, Solutol, seventh daily dose, fasted) was 13.3 ± 4.0%. For the same compound, the CL/F [1, 3] was 0.244 ± 0.034^a,h L/hr/kg, the “F0-∞” value [1, 3] was 100% and the “F0-∞” value ([1]; dogs, whole blood, 93.6 mg/m^2 (4.68 mg/kg) oral gavage, Solutol, seventh daily dose, fasted) was 14.2 ± 4.5% and 14.2%. For the same compound, the “F0-∞” value ([1]; dogs, whole blood, 93.6 mg/m^2 (4.68 mg/kg) oral gavage, Solutol, seventh daily dose, fed) was 17.2 ± 4.3^h,i % and 17.2%, the “ER CLiv/Q” value ([1]; dogs, iv blood clearance over hepatic blood flow 30.9 mL/min/kg) was 0.14 and the “effect of fed or fasted condition on bioavailability” value ([1]; dogs, oral gavage, Solutol) was “did not have an effect”. The bioavailability ([1]; male, dog, plasma, read-out: plasma oral bioavailability, range) was 0.7 to 14.6%, the bioavailability ([1]; male, dog, whole blood, read-out: blood oral bioavailability, range) was 1.1 to 17.2% and the AUC(0-inf) [1, 4] was 8.39 ± 1.19 µg·h/mL. For the same compound, the Cmax [1, 4] was 2.36 ± 0.573 µg/mL, the MRT [1, 4] was 6.3 ± 0.6 h and the Tmax [1, 4] was 0.25 h. The half-life [1, 4] was 5 ± 0.2 h, the CL/F ([1]; male, beagle, dog, plasma, po, 4.68 mg/kg, dogs, plasma, 93.6 mg/m^2 (4.68 mg/kg) oral gavage, Solutol, seventh daily dose, fasted, read-out: CL/F (converted)) was 4.58 L/h/kg and the Vd/F ([1]; male, beagle, dog, plasma, po, 4.68 mg/kg, dogs, plasma, 93.6 mg/m^2 (4.68 mg/kg) oral gavage, Solutol, seventh daily dose, fasted) was 64 ± 24 L/kg. It also gave a CL/F ([1]; male, beagle, dog, plasma, po, 4.68 mg/kg, dogs, plasma, 93.6 mg/m^2 (4.68 mg/kg) oral gavage, Solutol, seventh daily dose, fed, read-out: CL/F (converted)) of 4.18 L/h/kg, a Vd/F ([1]; male, beagle, dog, plasma, po, 4.68 mg/kg, dogs, plasma, 93.6 mg/m^2 (4.68 mg/kg) oral gavage, Solutol, seventh daily dose, fed) of 32.4 ± 9.6 L/kg and an AUC(0-inf) [1, 5] of 1.1 ± 0.339 µg·h/mL. The Cmax [1, 5] was 0.113 ± 0.058 µg/mL, the MRT [1, 5] was 12.8 ± 4.2 h and the Tmax [1, 5] was 2.8 ± 1.5 h. The half-life [1, 5] was 9.7 ± 2.4 h, the AUC(0-inf) [1, 6] was 1.24 ± 0.414 µg·h/mL and the Cmax [1, 6] was 0.207 ± 0.048 µg/mL. The MRT [1, 6] was 7.1 ± 1.1 h, the Tmax [1, 6] was 1.8 ± 0.5 h and the half-life [1, 6] was 5.6 ± 1.4 h. It also gave an AUC(0-inf) [1, 7] of 19.5 ± 3.16 µg·h/mL, a Cmax [1, 7] of 5.22 ± 0.742 µg/mL and an MRT [1, 7] of 6.7 ± 0.6 h. The Tmax [1, 7] was 0.25 h, the half-life [1, 7] was 5 ± 0.1 h and the CL/F ([1]; male, beagle, dog, whole blood, po, 4.68 mg/kg, dogs, whole blood, 93.6 mg/m^2 (4.68 mg/kg) oral gavage, Solutol, seventh daily dose, fasted, read-out: CL/F (converted)) was 1.8 L/h/kg. For the same compound, the Vd/F ([1]; male, beagle, dog, whole blood, po, 4.68 mg/kg, dogs, whole blood, 93.6 mg/m^2 (4.68 mg/kg) oral gavage, Solutol, seventh daily dose, fasted) was 18.6 ± 7.5 L/kg, the CL/F ([1]; male, beagle, dog, whole blood, po, 4.68 mg/kg, dogs, whole blood, 93.6 mg/m^2 (4.68 mg/kg) oral gavage, Solutol, seventh daily dose, fed, read-out: CL/F (converted)) was 1.54 L/h/kg and the Vd/F ([1]; male, beagle, dog, whole blood, po, 4.68 mg/kg, dogs, whole blood, 93.6 mg/m^2 (4.68 mg/kg) oral gavage, Solutol, seventh daily dose, fed) was 12.8 ± 4.8 L/kg. For the same compound, the AUC(0-inf) [1, 8] was 2.68 ± 0.577 µg·h/mL, the Cmax [1, 8] was 0.277 ± 0.087 µg/mL and the MRT [1, 8] was 10.9 ± 3.1 h. It also gave a Tmax [1, 8] of 2.8 ± 1.5 h, a half-life [1, 8] of 7 ± 1.8 h and an AUC(0-inf) [1, 9] of 3.41 ± 1.29 µg·h/mL. The Cmax [1, 9] was 0.575 ± 0.152 µg/mL, the MRT [1, 9] was 7.2 ± 0.9 h and the Tmax [1, 9] was 1.8 ± 0.5 h. For the same compound, the half-life [1, 9] was 5.9 ± 1.5 h, the clearance ([1]; male, beagle, dog, whole blood, dogs, blood clearance, 93.6 mg/m^2 (4.68 mg/kg) iv, DMSO:PEG300 15:85 v/v, fed) was 0.244 L/h/kg and the “metabolism in rat microsomes” value [2] was “slow metabolism”.
